# Article PMC12503911, “Cytotoxicity of Atropisomeric [1,1′‐Binaphthalene]‐2,2′‐Diamines (BINAM) and Analogs in Human Cancer Cells: Enantioselectivity, Structure–Activity Relationships, and Mechanism” (Chemmedchem, 2025)
# Read-outs that look alike come from different tables or passages of the source.
# What was measured:
# Test in all cases: biochemical
# Design in all cases: 33PanQinase radiometric kinase activity assay, residual activity in % of control, contract lab Reaction Biology
# Details in all cases: mean of intraexperimental duplicates, n = 1
# [1] = molecular target: T1, CHK1 (Homo sapiens, UniProt O14757)
# T1 construct: gene CHEK1
# T1 sequence (O14757 1-476): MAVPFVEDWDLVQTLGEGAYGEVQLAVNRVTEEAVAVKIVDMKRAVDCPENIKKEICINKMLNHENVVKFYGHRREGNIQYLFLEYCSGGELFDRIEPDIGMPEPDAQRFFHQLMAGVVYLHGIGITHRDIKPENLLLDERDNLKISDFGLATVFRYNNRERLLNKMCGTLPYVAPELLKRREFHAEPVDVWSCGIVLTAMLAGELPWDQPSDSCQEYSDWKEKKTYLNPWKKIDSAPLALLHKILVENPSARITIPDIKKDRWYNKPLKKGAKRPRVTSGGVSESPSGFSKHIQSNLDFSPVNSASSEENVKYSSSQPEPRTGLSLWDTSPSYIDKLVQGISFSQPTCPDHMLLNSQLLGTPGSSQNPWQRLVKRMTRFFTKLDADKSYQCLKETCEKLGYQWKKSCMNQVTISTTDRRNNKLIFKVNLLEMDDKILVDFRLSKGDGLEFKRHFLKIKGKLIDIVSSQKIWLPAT
# Description: (§1) Kinase Screening was performed at Reaction Biology (Freiburg, Germany) by using the ^33PanQinase Assay.^[ [90] ^] Based on this knowledge, we commissioned a kinase screening by the firm Reaction Biology, targeting those kinases whose inhibition has shown an indirect effect on microtubules. In our selection, we included additional kinases that are known to be involved in centrosome amplification (PLK4^[ [82] ^]), centrosome clustering (CDK1/2,^[ [83] ^] PLK1^[ [84] ^]), spindle multipolarity (SRC^[ [85] ^]), microtubule dynamics (AKT1^[ [86] ^]), and LIMK1/2 activation (ROCK1^[ [87] ^]) or are crucial for the mitosis (BUB1B, NEK2/9, WEE1^[ [88] ^]). Nonetheless, 1(R) and 1(S) at 10 µM had almost no inhibitory effects on any of the chosen kinases (Table 4 ). Only Aurora A (mean residual activity for 1(R): 86%, 1(S): 98%) and ASK1 (mean residual activity for 1(R): 90%, 1(S): 117%) were slightly enantioselectively impacted. However, we theorize that those marginal inhibitions are not explanatory for the antiproliferative and morphological effects of 1(R) on cancer cells.
# [2] = molecular target: T2, NEK9 (Homo sapiens, UniProt Q8TD19)
# T2 sequence (Q8TD19 1-979): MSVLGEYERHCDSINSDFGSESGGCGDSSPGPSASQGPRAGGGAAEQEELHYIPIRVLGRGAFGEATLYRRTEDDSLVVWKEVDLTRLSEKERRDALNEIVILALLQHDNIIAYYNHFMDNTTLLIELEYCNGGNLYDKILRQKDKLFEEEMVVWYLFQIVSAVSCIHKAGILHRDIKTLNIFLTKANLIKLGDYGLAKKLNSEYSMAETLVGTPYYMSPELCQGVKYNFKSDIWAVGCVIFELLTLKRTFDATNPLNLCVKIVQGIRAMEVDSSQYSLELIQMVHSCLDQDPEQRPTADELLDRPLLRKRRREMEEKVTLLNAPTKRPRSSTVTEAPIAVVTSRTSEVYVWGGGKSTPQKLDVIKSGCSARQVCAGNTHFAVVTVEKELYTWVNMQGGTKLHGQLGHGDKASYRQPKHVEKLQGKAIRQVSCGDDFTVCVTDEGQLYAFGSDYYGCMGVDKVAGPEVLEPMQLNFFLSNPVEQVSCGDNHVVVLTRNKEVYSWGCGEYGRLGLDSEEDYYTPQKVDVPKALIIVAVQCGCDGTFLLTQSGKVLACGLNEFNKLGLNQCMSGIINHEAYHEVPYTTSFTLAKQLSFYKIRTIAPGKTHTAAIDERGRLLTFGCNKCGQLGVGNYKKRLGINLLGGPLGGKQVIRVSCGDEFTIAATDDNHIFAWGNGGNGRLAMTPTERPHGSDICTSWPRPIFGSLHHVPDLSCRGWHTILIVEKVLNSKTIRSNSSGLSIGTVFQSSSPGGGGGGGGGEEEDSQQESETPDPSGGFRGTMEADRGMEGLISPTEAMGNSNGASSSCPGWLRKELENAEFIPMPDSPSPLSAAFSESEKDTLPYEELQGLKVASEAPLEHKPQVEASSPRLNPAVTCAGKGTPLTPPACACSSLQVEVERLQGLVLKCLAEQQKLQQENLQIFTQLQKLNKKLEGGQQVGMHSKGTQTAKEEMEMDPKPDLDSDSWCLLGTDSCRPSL
# Description: as §1
# [3] = molecular target: T3, PLK4 (Homo sapiens, UniProt O00444)
# T3 sequence (O00444 1-970): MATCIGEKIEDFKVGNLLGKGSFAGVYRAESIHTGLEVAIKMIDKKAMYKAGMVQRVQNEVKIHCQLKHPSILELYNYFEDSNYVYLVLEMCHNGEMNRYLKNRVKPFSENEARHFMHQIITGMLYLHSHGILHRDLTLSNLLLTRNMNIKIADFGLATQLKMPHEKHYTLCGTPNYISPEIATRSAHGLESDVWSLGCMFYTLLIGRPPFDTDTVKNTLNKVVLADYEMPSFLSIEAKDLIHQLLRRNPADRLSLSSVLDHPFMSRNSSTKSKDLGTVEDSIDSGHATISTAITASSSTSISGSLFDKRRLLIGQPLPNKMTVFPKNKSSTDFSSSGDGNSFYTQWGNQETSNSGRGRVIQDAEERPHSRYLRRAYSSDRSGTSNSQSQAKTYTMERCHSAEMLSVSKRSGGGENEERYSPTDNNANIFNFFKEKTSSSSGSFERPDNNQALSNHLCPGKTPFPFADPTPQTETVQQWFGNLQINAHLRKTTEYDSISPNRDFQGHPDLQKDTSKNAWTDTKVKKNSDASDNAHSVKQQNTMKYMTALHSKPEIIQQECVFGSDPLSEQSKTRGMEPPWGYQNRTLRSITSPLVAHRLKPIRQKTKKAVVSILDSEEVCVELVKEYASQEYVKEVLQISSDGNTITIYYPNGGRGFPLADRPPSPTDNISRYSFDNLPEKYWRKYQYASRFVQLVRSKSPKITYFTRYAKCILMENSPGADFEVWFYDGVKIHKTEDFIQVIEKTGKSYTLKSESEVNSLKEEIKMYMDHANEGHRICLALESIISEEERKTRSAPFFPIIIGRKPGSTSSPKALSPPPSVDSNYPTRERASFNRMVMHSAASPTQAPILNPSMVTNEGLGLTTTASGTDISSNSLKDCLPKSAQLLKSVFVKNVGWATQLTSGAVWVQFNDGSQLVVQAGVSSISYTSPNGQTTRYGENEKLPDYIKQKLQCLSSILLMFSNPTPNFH
# Description: as §1
# [4] = read-out: Residual activities [% of control] / 1(R) 10 µM
# [5] = read-out: Residual activities [% of control] / 1(S) 10 µM
"remaining activity at 10 µM [1, 4]","remaining activity at 10 µM [3, 4]","remaining activity at 10 µM [1, 5]","remaining activity at 10 µM [3, 5]",SMILES,"remaining activity at 10 µM [2, 4]","remaining activity at 10 µM [2, 5]"
94%,97%,,,"Nc1ccc2ccccc2c1-c1c(N)ccc2ccccc12 [1(R), (R)‐[1,1′‐binaphthalene]‐2,2′‐diamine]",94%,
,,95%,99%,"Nc1ccc2ccccc2c1-c1c(N)ccc2ccccc12 [1(S), S‐BINAM]",,96%
